Data: patent US20030158529A1 (priority 2001, published 2003)
Read-outs that look alike come from different tables or passages of the source.

Experiments:
Format in all cases: cell-based, Staphylococcus aureus
S. aureus (MN8) = test system: S. aureus (MN8)
S. aureus FRI-1169 = test system: S. aureus FRI-1169
S. aureus FRI-1187 = test system: S. aureus FRI-1187

Compound	CFU/mL (S. aureus (MN8)) [CFU/mL]	Reduction of Toxin (%) (S. aureus (MN8))	ELISA: TSST-1 ng/OD unit (S. aureus (MN8); S. aureus MN8, 2 μg/mL test compound, 24 hours) [ng/OD unit]	Optical Density 600 nm (S. aureus (MN8); S. aureus MN8, 2 μg/mL test compound, 24 hours, 35° C.)	ELISA: TSST-1 ng/OD unit (S. aureus (MN8)) [ng/OD unit]	Optical Density 600 nm (S. aureus (MN8))	ELISA: TSST-1 ng/OD unit (S. aureus (MN8); S. aureus MN8, 0.01 μg/mL test compound, 24 hours) [ng/OD unit]	Optical Density 600 nm (S. aureus (MN8); S. aureus MN8, 0.01 μg/mL test compound, 24 hours, 35° C.)	CFU/mL (S. aureus FRI-1169) [CFU/mL]	Optical Density 600 nm (S. aureus FRI-1169)	ELISA: TSST-1 ng/OD unit (S. aureus FRI-1169; S. aureus FRI-1169, 0.5 μg/mL) [ng/OD unit]	CFU/mL (S. aureus FRI-1187) [CFU/mL]	Optical Density 600 nm (S. aureus FRI-1187)	ELISA: TSST-1 ng/OD unit (S. aureus FRI-1187; S. aureus FRI-1187, 0.5 ug/mL) [ng/OD unit]
Oc1c(Cl)cc(Cl)c(Cl)c1Cc1c(O)c(Cl)cc(Cl)c1Cl [Hexachlorophene, hexachlorophene]	3.7E+08	68	330	0.350										
Oc1ccc(Cc2ccccc2)cc1 [4-Hydroxydiphenylmethane, 4-hydroxydiphenyl methane]	1.1E+08				785	0.581								
Oc1cc(Cl)ccc1Oc1ccc(Cl)cc1Cl [Triclosan, triclosan]	1.0E+08	88					129	0.271	1.50E+09	0.625	40	1.56E+09	0.156	95
